{
  "source": "patent US11337922B2",
  "about": "“Lipid particle formulations for delivery of RNA and water-soluble therapeutically effective compounds to a target cell” (BioNTech RNA Pharmaceuticals GmbH, priority 2015, dated 2022)",
  "system": "Vγ9Vδ2 T cells",
  "assay": "γ9δ2 T cell proliferation/expansion after coculture of ZA-loaded iDCs with PBLs",
  "assay_type": "cell-based, human",
  "conditions": "7-day coculture of ZA-loaded iDCs with PBLs",
  "description": "To check the functionality of the retained compound, ZA, the expansion of γ9δ2 T cells was evaluated after cocultivation of ZA-loaded iDCs with cryopreserved PBLs.\nFor evaluation of ex vivo frequency of γ9δ2 T cells freshly isolated PBMCs were stained with anti-CD3, anti-TCR-Vδ2 mABs and analysed via flow cytometry. Therefore, iDCs have been incubated as indicated for 24 h in standard medium (1×10^6 cells/mL) containing 5 μM ZA.\nAfter loading with ZA, iDCs have been centrifuged and washed with PBS. The coculture of iDCs with PBLs was setup in a ratio of 20 (iDCs): γ9δ2 T cells ex vivo. The medium was supplemented with 10 U/mL IL-2 (Proleukin). After 7-day incubation cells were harvested, washed and stained with anti-CD3, anti-TCR-Vδ2 mABs to evaluate frequency of γ9δ2 T cells and their expansion via flow cytometry. For analysis the expansion rate was determined dividing whole cell amount of γ9δ2 T cells before or after 7-day-cultivation.",
  "data": [
    {"smiles": "O=P(O)(O)C(O)(Cn1ccnc1)P(=O)(O)O", "note": "[free ZA, zoledronic acid]", "values": [
      {"measurement": "expansion rate of Vγ9δ2 T cells", "result": "about 15 fold"}
    ]}
  ]
}
